# Test results from ChEMBL document CHEMBL3885861, “Open TG-GATES”.
# Species: Rattus norvegicus
# Experiment: Open TG-GATES - Regimen: Daily Repeat
# Type: toxicity, organism-based, Sprague-Dawley
# Parameters: regimen Daily Repeat, gender Male, age 6 weeks
# Conditions: in vivo, po, 0 mg/kg, route gavage, dose level Control; for APTT / Bas / Eos / Fbg / Hb / Ht / Lym / MCH / MCHC / MCV / Mono / Neu / PT / Plat / RBC / Ret / WBC: tissue Blood; for KIDNEY_L / KIDNEY_R / KIDNEY_TOTAL: tissue Kidney; for LIVER: tissue Liver; for A/G / ALP / ALT / AST / BUN / CRE / Ca / Cl / DBIL / GLC / IP / K / LDH / Na / PL / RALB / TBIL / TC / TG / TP / gamma-GTP: tissue Plasma
smiles,measurement,setting,value
O=NN(CCCl)C(=O)NC1CCCCC1 [LOMUSTINE],TERMINAL_BW,"72 h, time 3 day",220.6 g
same,APTT,"72 h, time 3 day",17.7 s
same,Bas,"72 h, time 3 day",0%
same,Eos,"72 h, time 3 day",0.6%
same,Fbg,"72 h, time 3 day",234 mg/dL
same,Hb,"72 h, time 3 day",13.5 g/dL
same,Ht,"72 h, time 3 day",40.6%
same,Lym,"72 h, time 3 day",76.8%
same,MCH,"72 h, time 3 day",21.8 pg
same,MCHC,"72 h, time 3 day",33.3%
same,MCV,"72 h, time 3 day",65.5 fL
same,Mono,"72 h, time 3 day",6.4%
same,Neu,"72 h, time 3 day",16.2%
same,PT,"72 h, time 3 day",11.8 s
same,Plat,"72 h, time 3 day",108.6 x10_4/uL
same,RBC,"72 h, time 3 day",619.4 x10_4/ul
same,Ret,"72 h, time 3 day",7.2%
same,WBC,"72 h, time 3 day",131.9 x10_2/uL
same,KIDNEY_L,"72 h, time 3 day",1 g
same,KIDNEY_R,"72 h, time 3 day",1 g
same,KIDNEY_TOTAL,"72 h, time 3 day",2 g
same,LIVER,"72 h, time 3 day",10.5 g
same,A/G,"72 h, time 3 day",2
same,ALP,"72 h, time 3 day",1042.6 IU/L
same,ALT,"72 h, time 3 day",33.6 IU/L
same,AST,"72 h, time 3 day",69.4 IU/L
same,BUN,"72 h, time 3 day",18 mg/dL
same,CRE,"72 h, time 3 day",0.5 mg/dL
same,Ca,"72 h, time 3 day",11 mg/dL
same,Cl,"72 h, time 3 day",104.4 meq/L
same,DBIL,"72 h, time 3 day",0.006 mg/dL
same,GLC,"72 h, time 3 day",186.2 mg/dL
same,IP,"72 h, time 3 day",8.5 mg/dL
same,K,"72 h, time 3 day",5.1 meq/L
same,LDH,"72 h, time 3 day",99.8 IU/L
same,Na,"72 h, time 3 day",140 meq/L
same,PL,"72 h, time 3 day",147.6 mg/dL
same,RALB,"72 h, time 3 day",3.9 g/dL
same,TBIL,"72 h, time 3 day",0.4 mg/dL
same,TC,"72 h, time 3 day",74.8 mg/dL
same,TG,"72 h, time 3 day",114.6 mg/dL
same,TP,"72 h, time 3 day",5.9 g/dL
same,gamma-GTP,"72 h, time 3 day",2 IU/L
same,TERMINAL_BW,"[…], time 7 day",258.9 g
same,TERMINAL_BW,"[…], time 14 day",305.2 g
same,TERMINAL_BW,"[…], time 28 day",379.6 g
same,APTT,"[…], time 7 day",17.7 s
same,Bas,"[…], time 7 day",0%
same,Eos,"[…], time 7 day",1%
same,Fbg,"[…], time 7 day",241.8 mg/dL
same,Hb,"[…], time 7 day",13.4 g/dL
same,Ht,"[…], time 7 day",40.2%
same,Lym,"[…], time 7 day",79.6%
same,MCH,"[…], time 7 day",21.8 pg
same,MCHC,"[…], time 7 day",33.4%
same,MCV,"[…], time 7 day",65.2 fL
same,Mono,"[…], time 7 day",6%
same,Neu,"[…], time 7 day",14.2%
same,PT,"[…], time 7 day",11.4 s
same,Plat,"[…], time 7 day",107.5 x10_4/uL
same,RBC,"[…], time 7 day",617.4 x10_4/ul
same,Ret,"[…], time 7 day",7.2%
same,WBC,"[…], time 7 day",161 x10_2/uL
same,APTT,"[…], time 14 day",16.7 s
same,Bas,"[…], time 14 day",0%
same,Eos,"[…], time 14 day",0.4%
same,Fbg,"[…], time 14 day",224.4 mg/dL
same,Hb,"[…], time 14 day",14.1 g/dL
same,Ht,"[…], time 14 day",42%
same,Lym,"[…], time 14 day",80.8%
same,MCH,"[…], time 14 day",20.3 pg
same,MCHC,"[…], time 14 day",33.5%
same,MCV,"[…], time 14 day",60.7 fL
same,Mono,"[…], time 14 day",6.8%
same,Neu,"[…], time 14 day",11.8%
same,PT,"[…], time 14 day",11.4 s
same,Plat,"[…], time 14 day",119.2 x10_4/uL
same,RBC,"[…], time 14 day",693.2 x10_4/ul
same,Ret,"[…], time 14 day",4.9%
same,WBC,"[…], time 14 day",145.5 x10_2/uL
same,APTT,"[…], time 28 day",17.5 s
same,Bas,"[…], time 28 day",0%
same,Eos,"[…], time 28 day",1%
same,Fbg,"[…], time 28 day",250.6 mg/dL
same,Hb,"[…], time 28 day",15 g/dL
same,Ht,"[…], time 28 day",44.9%
same,Lym,"[…], time 28 day",82.8%
same,MCH,"[…], time 28 day",19.2 pg
same,MCHC,"[…], time 28 day",33.5%
same,MCV,"[…], time 28 day",57.3 fL
same,Mono,"[…], time 28 day",5.4%
same,Neu,"[…], time 28 day",10.8%
same,PT,"[…], time 28 day",11.9 s
same,Plat,"[…], time 28 day",107.1 x10_4/uL
same,RBC,"[…], time 28 day",783 x10_4/ul
same,Ret,"[…], time 28 day",2.5%
same,WBC,"[…], time 28 day",166.4 x10_2/uL
same,KIDNEY_L,"[…], time 7 day",1.2 g
same,KIDNEY_R,"[…], time 7 day",1.1 g
same,KIDNEY_TOTAL,"[…], time 7 day",2.3 g
same,KIDNEY_L,"[…], time 14 day",1.1 g
same,KIDNEY_R,"[…], time 14 day",1.2 g
same,KIDNEY_TOTAL,"[…], time 14 day",2.3 g
same,KIDNEY_L,"[…], time 28 day",1.4 g
same,KIDNEY_R,"[…], time 28 day",1.4 g
same,KIDNEY_TOTAL,"[…], time 28 day",2.7 g
same,LIVER,"[…], time 7 day",12.8 g
same,LIVER,"[…], time 14 day",14.1 g
same,LIVER,"[…], time 28 day",15.1 g
same,A/G,"[…], time 7 day",1.8
same,ALP,"[…], time 7 day",746 IU/L
same,ALT,"[…], time 7 day",36.6 IU/L
same,AST,"[…], time 7 day",59 IU/L
same,BUN,"[…], time 7 day",19.2 mg/dL
same,CRE,"[…], time 7 day",0.5 mg/dL
same,Ca,"[…], time 7 day",10.9 mg/dL
same,Cl,"[…], time 7 day",105.2 meq/L
same,DBIL,"[…], time 7 day",0.012 mg/dL
same,GLC,"[…], time 7 day",186 mg/dL
same,IP,"[…], time 7 day",7.5 mg/dL
same,K,"[…], time 7 day",4.9 meq/L
same,LDH,"[…], time 7 day",85 IU/L
same,Na,"[…], time 7 day",140.4 meq/L
same,PL,"[…], time 7 day",168.2 mg/dL
same,RALB,"[…], time 7 day",3.9 g/dL
same,TBIL,"[…], time 7 day",0.3 mg/dL
same,TC,"[…], time 7 day",90 mg/dL
same,TG,"[…], time 7 day",113.2 mg/dL
same,TP,"[…], time 7 day",6.1 g/dL
same,gamma-GTP,"[…], time 7 day",1 IU/L
same,A/G,"[…], time 14 day",2
same,ALP,"[…], time 14 day",859 IU/L
same,ALT,"[…], time 14 day",34 IU/L
same,AST,"[…], time 14 day",63.4 IU/L
same,BUN,"[…], time 14 day",20.2 mg/dL
same,CRE,"[…], time 14 day",0.5 mg/dL
same,Ca,"[…], time 14 day",11.3 mg/dL
same,Cl,"[…], time 14 day",106.8 meq/L
same,DBIL,"[…], time 14 day",0.014 mg/dL
same,GLC,"[…], time 14 day",183 mg/dL
same,IP,"[…], time 14 day",7.4 mg/dL
same,K,"[…], time 14 day",4.7 meq/L
same,LDH,"[…], time 14 day",85.6 IU/L
same,Na,"[…], time 14 day",140.2 meq/L
same,PL,"[…], time 14 day",167.6 mg/dL
same,RALB,"[…], time 14 day",4 g/dL
same,TBIL,"[…], time 14 day",0.3 mg/dL
same,TC,"[…], time 14 day",81 mg/dL
same,TG,"[…], time 14 day",118.6 mg/dL
same,TP,"[…], time 14 day",6.2 g/dL
same,gamma-GTP,"[…], time 14 day",2 IU/L
same,A/G,"[…], time 28 day",1.6
same,ALP,"[…], time 28 day",681.8 IU/L
same,ALT,"[…], time 28 day",32.2 IU/L
same,AST,"[…], time 28 day",63.4 IU/L
same,BUN,"[…], time 28 day",19 mg/dL
same,CRE,"[…], time 28 day",0.4 mg/dL
same,Ca,"[…], time 28 day",10.8 mg/dL
same,Cl,"[…], time 28 day",106 meq/L
same,DBIL,"[…], time 28 day",0.012 mg/dL
same,GLC,"[…], time 28 day",189.8 mg/dL
same,IP,"[…], time 28 day",6.3 mg/dL
same,K,"[…], time 28 day",4.6 meq/L
same,LDH,"[…], time 28 day",86.4 IU/L
same,Na,"[…], time 28 day",140 meq/L
same,PL,"[…], time 28 day",148.4 mg/dL
same,RALB,"[…], time 28 day",4 g/dL
same,TBIL,"[…], time 28 day",0.3 mg/dL
same,TC,"[…], time 28 day",71 mg/dL
same,TG,"[…], time 28 day",122.2 mg/dL
same,TP,"[…], time 28 day",6.4 g/dL
same,gamma-GTP,"[…], time 28 day",1.8 IU/L
